SMILES strings stand for the structures.

This assay has as its target T1, Human autotaxin enzyme (Homo sapiens, UniProt Q13822).
T1 construct: purchased R&D System
The experiment in a line: Evaluation of autotaxin inhibitor, Method C (Test Example 3): 18:0 Lyso PC, choline assay, Resorufin fluorescence. Particulars: Assay Method C (Test Example 3), human autotaxin, 18:0 Lyso PC substrate; read-out: Inhibitory Activity (autotaxin enzyme inhibitory activity, IC50 class). The format is biochemical. In short, it runs like this:
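Choline-coupled fluorescence readout (20 min, resorufin at 531/598 nm) followed a 2 h room-temperature reaction of human autotaxin with 18:0 Lyso PC substrate (added as 200 μM solution) in pH 7.5 Tris buffer containing MgCl2 and Triton X-100. Percent inhibition scaled to no-compound (0%) and no-enzyme (100%) wells and plotted versus concentration.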
For `CCCCCn1c(NCCCC(=O)O)cc(=O)n2cc(-c3ccc(Cl)cc3)nc12` [Compound 607], the IC50 was in the range of 10 to 100 nM. As for `CCCCCn1c(N2CCC[C@@H](C(=O)O)C2)cc(=O)n2cc(-c3ccc(Cl)cc3)nc12` [Compound 608], the IC50 lay within 10 to 100 nM. With `CCCCCn1c(N(C)CC(=O)NCC(=O)O)cc(=O)n2cc(-c3ccc(Cl)cc3)nc12` [Compound 609], the concentration for half-maximal inhibition (IC50) was in the range of 10 to 100 nM. As for `CCCCCn1c(NC2(C(=O)O)CC2)cc(=O)n2cc(-c3ccc(Cl)cc3)nc12` [Compound 610], the 50% inhibitory concentration (IC50) is > 1000 nM. On to `CCCCCn1c(NCCCCC(=O)O)cc(=O)n2cc(-c3ccc(Cl)cc3)nc12` [Compound 611], for which the concentration for half-maximal inhibition (IC50) lay within 10 to 100 nM. The same measure for `CCCCCn1c(N2CCCC[C@@H]2C(=O)O)cc(=O)n2cc(-c3ccc(Cl)cc3)nc12` [Compound 612]: 100 to 1000 nM.

On to `CCCCCn1c(N[C@@H]2CCC[C@H]2C(=O)O)cc(=O)n2cc(-c3ccc(Cl)cc3)nc12` [Compound 613], for which the IC50 lay in the range of 10 to 100 nM. With `CCCCCn1c(N2CCN(C(=O)OC(C)(C)C)C(C(=O)NCCC(=O)O)C2)cc(=O)n2cc(-c3ccc(Cl)cc3)nc12` (centres unmarked) [Compound 614], the half-inhibitory concentration (IC50) lay within 100 to 1000 nM. For `CCCCCn1c(N2CCC[C@H]2CC(=O)NCCC(=O)O)cc(=O)n2cc(-c3ccc(Cl)cc3)nc12` [Compound 615], the concentration for half-maximal inhibition (IC50) was < 10 nM. Turning to `CCCCCn1c(N2CCC[C@H](C(=O)NCCC(=O)O)C2)cc(=O)n2cc(-c3ccc(Cl)cc3)nc12` [Compound 616], the half-inhibitory concentration (IC50) is < 10 nM. With `CCCCCn1c(NCCC(=O)NCCC(=O)O)cc(=O)n2cc(-c3ccc(Cl)cc3)nc12` [Compound 617], the half-maximal inhibitory concentration (IC50) was 100 to 1000 nM. Take `CCCCCn1c(N(C)CC(=O)NCCC(=O)O)cc(=O)n2cc(-c3ccc(Cl)cc3)nc12` [Compound 618]: the IC50 was in the range of 10 to 100 nM. As for `CCCCCn1c(N2CCN(C(=O)OC(C)(C)C)C[C@@H]2C(=O)NCCC(=O)O)cc(=O)n2cc(-c3ccc(Cl)cc3)nc12` [Compound 619], the IC50 lay in the range of 10 to 100 nM. Consider `CCCCCn1c(N2CCN(C(=O)OC(C)(C)C)C[C@H]2C(=O)NCCC(=O)O)cc(=O)n2cc(-c3ccc(Cl)cc3)nc12` [Compound 620], for which the IC50 was < 10 nM. Take `CCCCCn1c(N2CCCC[C@H]2C(=O)NCCC(=O)O)cc(=O)n2cc(-c3ccc(Cl)cc3)nc12` [Compound 621]: the IC50 is < 10 nM. For the compound `CCCCCn1c(N2CCC[C@@H]2CC(=O)NCCC(=O)O)cc(=O)n2cc(-c3ccc(Cl)cc3)nc12` [Compound 622], the IC50 fell in the range of 100 to 1000 nM.

As for `CCCCCn1c(N2CCC[C@@]2(C)C(=O)NCCC(=O)O)cc(=O)n2cc(-c3ccc(Cl)cc3)nc12` [Compound 623], the 50% inhibitory concentration (IC50) lay in the range of 100 to 1000 nM. Take `CCCCCn1c(N2CCC[C@@H](C(=O)NCCC(=O)O)C2)cc(=O)n2cc(-c3ccc(Cl)cc3)nc12` [Compound 624]: the IC50 was in the range of 10 to 100 nM.

For the compound `CCCCCn1c(NC2(C(=O)NCCC(=O)O)CC2)cc(=O)n2cc(-c3ccc(Cl)cc3)nc12` [Compound 625], the half-inhibitory concentration (IC50) was 100 to 1000 nM. Turning to `CCCCCn1c(N2CCCC[C@@H]2C(=O)NCCC(=O)O)cc(=O)n2cc(-c3ccc(Cl)cc3)nc12` [Compound 626], the IC50 was in the range of 10 to 100 nM. In the case of `CCCCCn1c(N2CCN(C(=O)OC(C)(C)C)C(C(=O)NCC(=O)O)C2)cc(=O)n2cc(-c3ccc(Cl)cc3)nc12` (centres unmarked) [Compound 627], the IC50 lay in the range of 100 to 1000 nM. Take `CCCCCn1c(N2CCC[C@H]2CC(=O)NCC(=O)O)cc(=O)n2cc(-c3ccc(Cl)cc3)nc12` [Compound 628]: the half-maximal inhibitory concentration (IC50) is < 10 nM.

In the case of `CCCCCn1c(N2CCC[C@H](C(=O)NCC(=O)O)C2)cc(=O)n2cc(-c3ccc(Cl)cc3)nc12` [Compound 629], the IC50 is < 10 nM.

In the case of `CCCCCn1c(NCCC(=O)NCC(=O)O)cc(=O)n2cc(-c3ccc(Cl)cc3)nc12` [Compound 630], the 50% inhibitory concentration (IC50) fell in the range of 100 to 1000 nM. Regarding `CCCCCn1c(N2CCN(C(=O)OC(C)(C)C)C[C@@H]2C(=O)NCC(=O)O)cc(=O)n2cc(-c3ccc(Cl)cc3)nc12` [Compound 631], the concentration for half-maximal inhibition (IC50) was 100 to 1000 nM. For `CCCCCn1c(N2CCN(C(=O)OC(C)(C)C)C[C@H]2C(=O)NCC(=O)O)cc(=O)n2cc(-c3ccc(Cl)cc3)nc12` [Compound 632], the IC50 lay within 10 to 100 nM.

(Values after patent US20160002247A1, “8-SUBSTITUTED IMIDAZOPYRIMIDINONE DERIVATIVE HAVING AUTOTAXIN INHIBITORY ACTIVITY” (THE UNIVERSITY OF TOKYO, priority 2013, published 2016).)
